Measurements as given in patent US20230049231A1 (priority 2019, published 2023).
pIC50: −log10 of the molar value.

What was measured:
hERG channel = molecular target: T1, hERG channel (Homo sapiens, UniProt Q12809); assay: hERG electrophysiology, automated whole-cell patch clamp (Patchliner); format: cell-based; conditions: hERG channel, whole-cell patch clamp
T1 construct: expressed in transfected cells
Outline: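 Automated whole-cell patch clamp on CHO-K1 cells stably expressing hERG; 30 nM–100 μM applied cumulatively to the same cell, ≤0.3% DMSO. Pulses: −80 mV holding, +20 mV for 300 ms, −50 mV for 300 ms tail, 0.3 Hz, 70 per concentration. Last-pulse AUC and peak, normalized to control, were fitted to a Hill equation for IC50.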

Kv1.3 potassium channel = molecular target: T2, Kv1.3 potassium channel (Homo sapiens, UniProt P22001); assay: Kv1.3 potassium channel blocker activity, automated whole-cell patch clamp (Patchliner); format: cell-based; conditions: Kv1.3 potassium channel, whole-cell patch clamp
T2 construct: expressed in transfected cells
T2 sequence (P22001 whole entry): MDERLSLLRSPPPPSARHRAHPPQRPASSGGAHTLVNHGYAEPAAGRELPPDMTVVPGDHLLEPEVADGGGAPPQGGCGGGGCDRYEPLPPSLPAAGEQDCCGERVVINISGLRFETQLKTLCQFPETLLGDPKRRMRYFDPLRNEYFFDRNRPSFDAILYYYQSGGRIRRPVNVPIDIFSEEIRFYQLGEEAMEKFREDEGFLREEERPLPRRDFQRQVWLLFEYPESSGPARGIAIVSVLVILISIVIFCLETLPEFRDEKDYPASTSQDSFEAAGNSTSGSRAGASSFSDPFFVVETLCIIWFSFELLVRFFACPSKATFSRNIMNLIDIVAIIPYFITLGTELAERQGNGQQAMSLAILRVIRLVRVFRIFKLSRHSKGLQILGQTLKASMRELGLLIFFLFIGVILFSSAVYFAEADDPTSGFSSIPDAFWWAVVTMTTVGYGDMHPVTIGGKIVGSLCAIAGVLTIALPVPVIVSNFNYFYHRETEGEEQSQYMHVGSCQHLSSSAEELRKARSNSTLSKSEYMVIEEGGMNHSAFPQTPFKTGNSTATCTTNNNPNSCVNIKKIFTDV
Outline: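 IC50 came from Hill-equation fits of peak and AUC currents from the final pulse at each concentration, normalized to compound-free control. Compounds applied consecutively at 30 nM to 100 μM (up to 0.3% DMSO) to Kv1.3-expressing CHO-K1 cells, P/4 leak subtraction. Pulses were +40 mV, 100 ms, from −90 mV holding, at 0.1 Hz on Patchliner.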

T1 sequence (Q12809 whole entry): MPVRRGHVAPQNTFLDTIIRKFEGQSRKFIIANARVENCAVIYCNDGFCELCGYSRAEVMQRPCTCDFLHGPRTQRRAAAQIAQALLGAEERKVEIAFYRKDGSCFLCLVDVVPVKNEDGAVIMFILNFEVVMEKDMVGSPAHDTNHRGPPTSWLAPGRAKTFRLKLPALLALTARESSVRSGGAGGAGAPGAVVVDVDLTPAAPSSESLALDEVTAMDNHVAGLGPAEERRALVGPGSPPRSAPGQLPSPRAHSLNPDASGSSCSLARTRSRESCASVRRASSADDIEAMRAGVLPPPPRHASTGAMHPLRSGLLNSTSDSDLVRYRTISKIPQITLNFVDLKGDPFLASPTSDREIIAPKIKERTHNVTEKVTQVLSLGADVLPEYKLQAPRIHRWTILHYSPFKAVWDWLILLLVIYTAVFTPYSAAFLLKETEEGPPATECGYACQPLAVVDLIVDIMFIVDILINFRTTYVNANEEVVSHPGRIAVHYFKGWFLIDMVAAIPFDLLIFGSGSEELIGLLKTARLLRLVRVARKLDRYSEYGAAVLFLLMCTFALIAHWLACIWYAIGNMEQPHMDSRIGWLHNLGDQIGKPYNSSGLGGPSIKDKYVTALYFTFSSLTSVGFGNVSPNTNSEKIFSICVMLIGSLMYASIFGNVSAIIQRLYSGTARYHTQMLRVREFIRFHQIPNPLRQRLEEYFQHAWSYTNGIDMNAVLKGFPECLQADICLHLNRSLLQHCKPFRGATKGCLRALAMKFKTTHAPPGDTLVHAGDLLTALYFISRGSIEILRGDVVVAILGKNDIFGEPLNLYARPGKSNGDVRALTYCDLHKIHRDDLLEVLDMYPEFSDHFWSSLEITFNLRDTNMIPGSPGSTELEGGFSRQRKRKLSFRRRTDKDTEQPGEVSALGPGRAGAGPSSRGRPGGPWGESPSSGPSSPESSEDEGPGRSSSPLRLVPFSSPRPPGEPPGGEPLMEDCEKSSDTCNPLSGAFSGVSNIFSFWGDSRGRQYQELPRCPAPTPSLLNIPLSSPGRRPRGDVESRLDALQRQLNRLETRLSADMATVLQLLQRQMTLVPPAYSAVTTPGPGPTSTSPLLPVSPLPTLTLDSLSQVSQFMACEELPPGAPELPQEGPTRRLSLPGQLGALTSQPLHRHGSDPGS

| Compound | pIC50 (hERG channel) | pIC50 (Kv1.3 potassium channel) |
| --- | --- | --- |
| CNC(=O)CC1OC[C@@H]2C[C@H](c3c(O)ccc(Cl)c3Cl)CCN2C1=O (stereo partly drawn) [Compound 188, 2-[(8R,9aS)-8-(2,3-dichloro-6-hydroxyphenyl)-4-oxo-hexahydro-1H-pyrido[2,1-c] [1,4]oxazin-3-yl]-N-methylacetamide] | < 4.52 | > 6.00 |
| O=C1CC(N2CCOCC2)C[C@@H]2C[C@H](c3c(O)ccc(Cl)c3Cl)CN12 (stereo partly drawn) [Compound 195, (2R,8aS)-2-(2,3-dichloro-6-hydroxyphenyl)-7-(morpholin-4-yl)-hexahydro-1-indolizin-5-one] | > 4.52 | > 6.00 |
| CC(=O)NC1CC(=O)N2C[C@@H](c3c(O)ccc(Cl)c3Cl)C[C@H]2C1 (stereo partly drawn) [Compound 206, N-[(2R,8aS)-2-(2,3-dichloro-6-hydroxyphenyl)-5-oxo-hexahydro-1H-indolizin-7-yl]acetamide] | < 4.52 | > 6.00 |
| NCC1CC(=O)N2C[C@@H](c3c(O)ccc(Cl)c3Cl)C[C@H]2C1 (stereo partly drawn) [Compound 217, (2R,8aR)-7-(aminomethyl)-2-(2,3-dichloro-6-hydroxyphenyl)-hexahydro-1H-indolizin-5-one] | < 4.52 | > 6.00 |
| O=C1CC(O)(CO)C[C@@H]2C[C@H](c3c(O)ccc(Cl)c3Cl)CN12 (stereo partly drawn) [Compound 220, (2R,8aS)-2-(2,3-dichloro-6-hydroxyphenyl)-7-hydroxy-7-(hydroxymethyl)-hexahydroindolizin-5-one] | < 4.52 | > 6.00 |
| O=C1CCC[C@@H]2C[C@H](c3c(O)ccc(Cl)c3Cl)CN12 [Compound 223, (2R,8aR)-2-(2,3-dichloro-6-hydroxyphenyl)-hexahydro-1H-indolizin-5-one] | < 4.52 | > 6.00 |
| O=C1C(O)C(O)C[C@@H]2C[C@H](c3c(O)ccc(Cl)c3Cl)CN12 (stereo partly drawn) [Compound 226, (2R,8aS)-2-(2,3-dichloro-6-hydroxyphenyl)-6,7-dihydroxy-hexahydro-1H-indolizin-5-one] | < 4.52 | > 6.00 |
| CNC(=O)C1CC(=O)N2C[C@@H](c3c(O)ccc(Cl)c3Cl)C[C@H]2C1 (stereo partly drawn) [Compound 232, (2R,8aS)-2-(2,3-dichloro-6-hydroxyphenyl)-N-methyl-5-oxo-hexahydro-1H-indolizine-7-carboxamide] | < 4.52 | > 6.00 |
| CN(C)CC1CC(=O)N2C[C@@H](c3c(O)ccc(Cl)c3Cl)C[C@H]2C1 (stereo partly drawn) [Compound 240, (2R,8aR)-2-(2,3-dichloro-6-hydroxyphenyl)-7-[(dimethylamino)methyl]-hexahydro-1H-indolizin-5-one] | > 5.00 | > 6.00 |
| O=C1CC(CN2CCNCC2)C[C@@H]2C[C@H](c3c(O)ccc(Cl)c3Cl)CN12 (stereo partly drawn) [Compound 241, (2R,8aR)-2-(2,3-dichloro-6-hydroxyphenyl)-7-(piperazin-1-ylmethyl)-hexahydro-1H-indolizin-5-one] | < 4.52 | > 6.00 |
| O=C1CC(O)C[C@@H]2C[C@H](c3c(O)ccc(Cl)c3Cl)CCN12 (stereo partly drawn) [Compound 250, (8R,9aS)-8-(2,3-dichloro-6-hydroxyphenyl)-2-hydroxy-octahydroquinolizin-4-one] | < 4.52 | > 6.00 |
| O=C1OC[C@@H]2C[C@H](c3c(O)ccc(Cl)c3Cl)CN12 [Compound 251, (6R,7aS)-6-(2,3-dichloro-6-hydroxyphenyl)-tetrahydro-1H-pyrrolo[1,2-c][1,3]oxazol-3-one] | > 4.52 | > 6.00 |
| CC1(C)OC(=O)N2C[C@@H](c3c(O)ccc(Cl)c3Cl)C[C@H]2C1O (stereo partly drawn) [Compound 257, (4aS,6R)-6-(2,3-dichloro-6-hydroxyphenyl)-4-hydroxy-3,3-dimethylhexahydro-1H-pyrrolo[1,2-c][1,3]oxazin-1-one] | < 4.52 | > 6.00 |
| CC(=O)NCC1OC(=O)N2C[C@@H](c3c(O)ccc(Cl)c3Cl)C[C@@H]12 (stereo partly drawn) [Compound 276, N-[[(6R,7aS)-6-(2,3-dichloro-6-hydroxyphenyl)-3-oxo-tetrahydro-1H-pyrrolo[1,2-c][1,3]oxazol-1-yl]methyl]acetamide] | < 4.52 | > 6.00 |
| CNCC1OC(=O)N2C[C@@H](c3c(O)ccc(Cl)c3Cl)C[C@@H]12 (stereo partly drawn) [Compound 281, (6R,7aS)-6-(2,3-dichloro-6-hydroxyphenyl)-1-[(methylamino)methyl]-tetrahydro-1H-pyrrolo[1,2-c][1,3]oxazol-3-one] | > 4.52 | > 6.00 |
| O=C(C1OC(=O)N2C[C@@H](c3c(O)ccc(Cl)c3Cl)C[C@@H]12)N1CCNCC1 (stereo partly drawn) [Compound 289, (6R,7aS)-6-(2,3-dichloro-6-hydroxyphenyl)-1-(piperazine-1-carbonyl)-tetrahydro-1H-pyrrolo[1,2-c][1,3]oxazol-3-one] | < 4.52 | > 6.00 |
| NCCN1C[C@@H]2C[C@H](c3c(O)ccc(Cl)c3Cl)CN2C1=O [Compound 292, (6R,7aS)-2-(2-aminoethyl)-6-(2,3-dichloro-6-hydroxyphenyl)-tetrahydro-1H-pyrrolo[1,2-c]imidazol-3-one] | > 4.52 | > 6.00 |
| O=C1NC[C@@H]2C[C@H](c3c(O)ccc(Cl)c3Cl)CN12 [Compound 293, (6R,7aS)-6-(2,3-dichloro-6-hydroxyphenyl)-hexahydropyrrolo[1,2-c]imidazol-3-one] | < 4.52 | > 6.00 |
